The subject of test [1] is bone marrow CD34+ cells. The experiment in a line: Puromycin selection of HPV654-transduced bone marrow CD34+ cells; PCR of CFU-GM colonies for lentiviral vector. It is filed as cell-based, human. To be noted: BM CD34+ cells, 5 μg/ml puromycin for 24 hours, 14 days growth.
Protocol: (§1) Viral titers were determined by qPCR analysis of transduced NIH3T3 cells with proviral copy number controls.
(§2) Either fresh bone marrow (BM, Lonza, Walkersville, Md.) or cryopreserved G-CSF-mobilized peripheral blood (mPB, AllCells, Emeryville, Calif.) CD34^+ purified cells were used from normal human donors. At a cell concentration of 1×10^6/ml, the CD34 cells were prestimulated for 24 hours (BM) or 18 hours (mPB) in StemPro-34 SFM supplemented with L-glutamine, 100 ng/ml hSCF, 100 ng/ml hTPO, 100 ng/ml hFLT3-L and 20 ng/ml hIL-3 for BM or 60 ng/ml hIL-3 for mPB. The cells were then resuspended at a concentration of 4×10^6 (BM) or 3×10^6 (mPB) cells/ml in the same medium containing cytokines with additional supplementation with 8 μg/ml protamine sulfate and the HPV654 supernatant at either 10% (final exposed titer of 3×10^7 IU/ml with MOI of 7.5 for BM and 1×10^7 IU/ml with MOI of 3.3 for mPB) or 50% (final exposed titer of 1.5×108 IU/ml with MOI of 37.5 for BM and 5×10^7 IU/ml with MOI of 16.7 for mPB). […] Each colony was then analyzed for the presence of the lentiviral vector by PCR analysis of individual colonies using primers for erythropoietin gene for BM and human actin gene for mPB and primers specific for the lentiviral vector (GAG for BM and LTR for mPB).
The subject of test [2] is G-CSF mobilized peripheral blood CD34+ cells. Description: Puromycin selection of HPV654-transduced G-CSF mobilized peripheral blood CD34+ cells; PCR of CFU-GM colonies for lentiviral vector. It is filed as cell-based, human.
Protocol: as §1, §2

Values joined by “and” are separate entries in the source; they are usually repeats but may differ in a detail not shown here. Equal values may be shown once.

With `COc1ccc(C[C@H](N)C(=O)N[C@H]2[C@@H](O)[C@H](n3cnc4c(N(C)C)ncnc43)O[C@@H]2CO)cc1` [puromycin], the “colonies positive for the lentiviral vector (transduced cells)” value in test [1] (10% HPV654 supernatant) was 100%; in test [1] (50% HPV654 supernatant), 79%; in test [2], 88% and 100%.

Values taken from patent US20140199279A1, “METHODS FOR ENHANCING THE DELIVERY OF GENE-[…]” (Bluebird Bio, Inc., priority 2011, published 2014).
